One may read the koff as the rate constant with which the complex falls apart. By Kd is commonly meant the free concentration of one partner at which half of the binding sites on the other are occupied at equilibrium, for simple one-to-one binding. A word on the kon: it is the rate constant with which the complex forms. Low readings indicate slower complex formation, high ones faster complex formation.

Molecules are shown by their SMILES. Entries after “also recorded” stand apart in the source; their conditions may differ. Read-outs that look alike come from different tables or passages of the source.

The source of these data is PMC12381781, “Structural and functional insights into the selective inhibition of mutant tau aggregation by purpurin and oleocanthal in frontotemporal dementia” (Protein Science : A Publication of the Protein Society, 2025).

Experiment [1] has as its system Tau RD P301S FRET Biosensor cells. The experiment can be described thus: Biosensor cells treated with compound alone, no exogenous seeds. The experiment is classed as cell-based. The following applies: 48 h. The method, then:
Figure S17. […] Tau RD P301S FRET Biosensor cells were treated with PUR or OLC at the indicated concentrations for 48 h in the absence of any exogenous tau seeds or aggregation mixtures. Cells were then imaged under the same conditions described in Figure 5 to assess spontaneous FRET signal (CFP/YFP inclusions) as a readout of intracellular tau aggregation. […] Scale bar: 100 µm.

The next experiment has as its target R2R3 (N279K) tau peptide (Homo sapiens, UniProt P10636, N596K). The experiment in a line: SPR titration cycle kinetics, immobilized R2R3 (N279K) peptide. It counts as binding. As for the experimental part: (§1) SPR experiments were conducted using the Sierra® SPR‐24 Pro system (Bruker Daltonics, Bremen, Germany), featuring a gold‐coated microfluidic array (24 detection spots, 3 × 8 format). Data acquisition and kinetic analysis were performed using SPR Analyzer 4 software.
(§2) All experiments were conducted at 25°C using PBS (pH 7.4) supplemented with 0.05% Tween‐20 and 5% DMSO as the running buffer to ensure assay reproducibility. Assay components, including 96‐well microtiter plates (Part # 1862984; Burker) and Microplate and Reservoir Sealer (Part #1862985; Burker), were used for sample handling and were compatible with the Sierra SPR®‐24 Pro system (Bruker Daltonics, Billerica, MA, USA).
(§3) WT and mutant (P301L, V287I, and N279K) tau peptides were dissolved in 10 mM sodium acetate buffer (pH 5.0; Burker) and immobilized onto High‐Capacity Amine Sensor Surfaces (Part #1862614; Bruker) using the Amine Coupling Kit (Part #1862634; Bruker). The sensor surface was preconditioned with a Surface Elution Buffer (Part #1862656; Bruker Daltonics) and 0.1M HCl to remove contaminants and improve binding specificity.
(§4) The surface was activated using 400 mM 1‐ethyl‐3‐(3‐dimethylaminopropyl) carbodiimide (Burker) and 50 mM N‐hydroxysuccinimide (Burker), enabling covalent attachment of tau peptides. Unreacted binding sites were blocked with 1M ethanolamine‐HCl (pH 8.5; Burker) to minimize nonspecific interactions. For each experiment, specific sensor spots (A/B/C) on channels 1–8 were designated for tau‐analyte interactions, with corresponding reference spots on the same channel for baseline correction. DMSO calibration solutions (4.6%, 4.8%, 5%, 5.2%, and 5.4%) were prepared for double referencing to compensate for DMSO solvent effects.
(§5) PUR and OLC were prepared in PBS (pH 7.4) supplemented with 0.05% Tween‐20 and 5% DMSO. Compound interactions with tau peptides were pre‐screened using a concentration range of 1–100 μM, and subsequent binding kinetics were evaluated at optimized concentrations. For kinetic studies, PUR was tested at […], while OLC was tested at 25–100 μM using two‐fold serial dilutions. Each analyte was sequentially injected, and association and dissociation phases were monitored to determine kinetic parameters.
(§6) SPR binding kinetics were assessed using the titration cycle kinetics (TCK) assay, which included consecutive association phases followed by a single dissociation phase. Pre‐assay simulations using the Kinetic Simulator feature of SPR Analyzer 4 software were used to optimize analyte concentration ranges and association/dissociation times. A reference blank injection was included for double referencing, and a single dissociation curve was recorded for the highest analyte concentration.
(§7) Sensorgrams were analyzed using the Kinetic Titration model, which was integrated into the global kinetic fitting model of the SPR Analyzer 4 software. This approach allowed for baseline correction and improved the reliability of kinetic parameters, including the Kon, Koff, and KD.
(§8) TCK‐derived kinetic parameters were compared across multiple runs and confirmed using Multi Injection Cycle Kinetics to validate reproducibility and accuracy.

For a further experiment, the target named is R2R3 (V287I) tau peptide (Homo sapiens, UniProt P10636, V604I). The experiment in a line: SPR titration cycle kinetics, immobilized R2R3 (V287I) peptide. It counts as binding. As for the experimental part:
as §1, §2, §3, §4, §5, §6, §7, §8

The target in another experiment is R2R3 (P301L) tau peptide (Homo sapiens, UniProt P10636, P618L). The experiment in a line: ThT aggregation assay of monomeric R2R3 (P301L) peptide. The following applies: for ThT-stained aggregates, confocal imaging: R2R3 P301L, end of ThT assay. The experiment is classed as biochemical. The method, then:
The aggregation kinetics of tau peptides were monitored using a ThT assay. A 40 μL reaction mixture containing 15 μM ThT (Sigma‐Aldrich, Cat. # T3516‐5G) and 50 μM peptide in the absence (control) or presence of 0.1 μM, 1 μM, and 10 μM PUR or OLC was prepared on ice in aggregation buffer (20 mM Tris [pH 7.4], 100 mM NaCl, 1 mM ethylenediaminetetraacetic acid [EDTA]) containing 5 μM heparin (Sigma‐Aldrich, Cat. #H4784). dithiothreitol (DTT) was excluded to avoid its differential effects on the aggregation kinetics of tau peptides containing Cys291 or Cys322 and to prevent peroxide generation by redox‐active compounds like PUR, which can lead to oxidative artifacts and false‐positive inhibition signals, as reported in our previous study (Annadurai, Malina, Salmona, et al., [2022]). This mixture was then dispensed into a clear‐bottom, black 384‐well ViewPlate (Revvity, Waltham, MA, United States; Part # 6007460) and sealed with a TopSealA‐PLUS (Revvity) to prevent evaporation.
Aggregation was monitored using EnSpire Multimode Plate Reader (Revvity) at 37°C with constant agitation (1000 rpm). To minimize condensation, the upper heater temperature was set to 2°C higher than the lower heater temperature. ThT fluorescence (ThT—λ ex: 460–490 nm and λem: 500–550 nm) was recorded every 5–10 min for 48 h.
ThT fluorescence curves were fitted to a sigmoidal function in GraphPad Prism (version 10, San Diego, CA, USA) using the following equation:
Y=Top/1+expV50–X/Slope , where Y is the ThT fluorescence intensity, X is time (h), Top is the maximum fluorescence intensity, V50 is the time to reach 50% of Top, and Slope describes the steepness of the aggregation transition. Baseline fluorescence at the start of the measurements was relatively low across samples and was not separately fitted. In samples showing early increases in fluorescence, the aggregation trajectory was modeled directly without introducing an independent baseline parameter.
The V50 value obtained from each replicate was used as the aggregation t 1/2 for statistical analysis.
To evaluate the effect of compounds on the extent of aggregation, the AUC was calculated for each replicate ThT fluorescence curve using GraphPad Prism. AUC values were then normalized to the mean AUC of the untreated control group and expressed as “aggregation (% of control),” serving as an indirect and comparative measure of fibril formation.
Figure S11. Confocal imaging of ThT-stained aggregates formed in the presence of PUR and OLC (corresponding to Figure 3). At the end of the ThT aggregation assay, reaction mixtures containing WT or mutant R2R3 tau peptides (P301L, V287I, N279K), incubated in the absence (CTL) or presence of 10 µM PUR or OLC, were collected from assay wells, embedded in 0.05% low-melting agarose, and imaged. ThT fluorescence was acquired using a Yokogawa Cell Voyager 7000S high-content imaging system equipped with a 20× objective (Ex: 460–490 nm, Em: 500–550 nm) and analyzed with Signals Image Artist (Revvity). […] Scale bar: 20 μm.

Chain of R2R3 (V287I) tau peptide (P10636 592-653 V604I): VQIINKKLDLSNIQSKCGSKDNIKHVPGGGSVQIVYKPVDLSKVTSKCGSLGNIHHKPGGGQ
Chain of R2R3 (P301L) tau peptide (P10636 592-653 P618L): as the sequence (P10636 592-653 V604I) above, with I13V, P27L counted along it
Chain of R2R3 (N279K) tau peptide (P10636 592-653 N596K): as the sequence (P10636 592-653 V604I) above, with N5K, I13V counted along it

As for `C/C=C(/C=O)[C@@H](CC=O)CC(=O)OCCc1ccc(O)cc1` [OLC, oleocanthal], in experiment [1], the “induction of endogenous tau aggregation (FRET-positive inclusions) by compound alone” value is reported as “No FRET-positive aggregates were detected; also recorded: no FRET‐positive inclusions were detected”. Besides, the Kon is 34.60 M⁻¹ s⁻¹ at R2R3 (N279K) tau peptide (SPR, R2R3 N279K) and 42.24 M⁻¹ s⁻¹ at R2R3 (V287I) tau peptide (SPR, R2R3 V287I). In addition, the koff was found to be 6.87e-05 s⁻¹ on R2R3 (N279K) tau peptide (SPR, R2R3 N279K) and 8.69e-05 s⁻¹ on R2R3 (V287I) tau peptide (SPR, R2R3 V287I). Also, the Kd is 1.98 µM on R2R3 (N279K) tau peptide (SPR, R2R3 N279K peptide immobilized, 25°C, PBS pH 7.4, read-out: KD) and 2.06 µM at R2R3 (V287I) tau peptide (SPR, R2R3 V287I peptide immobilized, 25°C, PBS pH 7.4, read-out: KD). The “aggregation (% of control), AUC of ThT fluorescence” value is 8% on R2R3 (P301L) tau peptide (R2R3 P301L 50 μM, compound 0.1 μM) and “below 10%” on R2R3 (P301L) tau peptide (R2R3 P301L 50 μM, compound 10 μM). Besides, the “ThT-stained aggregates, confocal imaging” value at R2R3 (P301L) tau peptide (compound 10 μM) is reported as “marked reduction in ThT signal”.
For `O=C1c2ccccc2C(=O)c2c(O)c(O)cc(O)c21` [PUR, purpurin], the “induction of endogenous tau aggregation (FRET-positive inclusions) by compound alone” value in experiment [1] is on record as “No FRET-positive aggregates were detected; also recorded: no FRET‐positive inclusions were detected”. The values for the Kd at R2R3 (N279K) tau peptide and at R2R3 (V287I) tau peptide were 4.22 µM and 4.73 µM, respectively. The kon on R2R3 (N279K) tau peptide (SPR, R2R3 N279K) turned out to be 70.3 M⁻¹ s⁻¹; on R2R3 (V287I) tau peptide (SPR, R2R3 V287I) it was 42.1 M⁻¹ s⁻¹. Further, the koff at R2R3 (N279K) tau peptide (SPR, R2R3 N279K, read-out: Koff) was found to be 0.000297 s⁻¹; on R2R3 (V287I) tau peptide (SPR, R2R3 V287I, read-out: Koff), 0.000199 s⁻¹. Besides, the remaining activity at 0.1 µM at R2R3 (P301L) tau peptide (R2R3 P301L 50 μM, compound 0.1 μM, read-out: aggregation (% of control), AUC of ThT fluorescence) is 47%. In addition, the remaining activity at 10 µM on R2R3 (P301L) tau peptide (R2R3 P301L 50 μM, compound 10 μM, read-out: aggregation (% of control), AUC of ThT fluorescence) is less than 10%. Further, the “ThT-stained aggregates, confocal imaging” value on R2R3 (P301L) tau peptide (compound 10 μM) is reported as “marked reduction in ThT signal”.
